Data published in US7122524B2, “Tripeptides and tripeptide derivatives for the treatment of postlesional disease of the nervous system” (Neurotell AG, priority 2002, dated 2006).
In brackets after ≈: the same amount, converted by molar mass. Counter-ions that a name gives are not always drawn. Like-named read-outs stand apart in the source and are kept apart here. One block for each molecule: values may come before it. Residues, ends and D or L forms follow the SMILES beside them.

What was measured:
[1] = Metabolic stability in rat hepatocytes; assay type: in vitro ADME; details: male, Wistar, 10^6 cells/ml, analysed during 24 h, read-out: T½ (converted)
Text: Hepatocytes from adult male Wistar rats (IFFA Credo, L'Arbresle, France) were isolated by an in situ liver perfusion using collagenase (purchased from Sigma (St. Louis, Mo., U.S.A), according to a procedure described by Seglen (Preparation of isolated rat liver cell, Methods Cell Biol. 13, 29–83, 1976) and modified by Williams et al. (Rat hepatocyte primary culture. III. Improved dissociation and attachment techniques and the enhancement of survival by culture medium, in vitro 13: 809–817, 1977). After estimation of cell viability by the peripheral refractoriness of intact cells in phase contrast microscopy and the trypan blue test, freshly isolated hepatocytes were washed in basal William's medium E (WME) supplemented with 10% (v/v) fetal calf serum, 70 μM cortisol, 2 mM L-glutamine, 10 mM HEPES buffer, and 4 mM NaOH. They were then plated at a density of 0,5×10^6 cells per 50 mm plastic cell culture dishes in the medium described previously for cell attachment for 6 hours at 37° C. Subsequently, hepatocytes were washed three times in serum- and cholesterol-free medium (SF-WME) containing 4 g/l bovine albumin fraction V (Sigma) as transporter for 7.8 μM of a mixture of free fatty acids (Cheesebeuf M and Padieu P, expression of major liver metabolic function in long-term serum-free rat liver epithelial cell lines. In vitro 20: 780–795, 1984), and then were transferred to the SF-WME supplemented with the various tripeptides of formula (I). For each group of experiments, hepatocytes from three or four livers were used.
Significances are calculated using Student's t-test. Values are expressed as mean±SD.
• Method: (Hepatocytes in suspension) • Plasma sample: Precipitation with trichloracetic acid. • Centrifugation and aliquot of supernatant to HPLC. • […] column: Nucleosil C18 (250×4,6 mm). • Buffer TEAP 0,1%/CH3CN, 1 ml/min • Readings at 210 nm. […]
Each substance of each concentration will be analysed 10 times during 24 h (1 h, 2 h, 4 h, 6 h, 8 h, 10 h, 12 h, 16 h, 20 h, 24 h).

[2] = literature value; cited from earlier work
[3] = physchem
[4] = system: cholinergic nerve ends; assay: Sprouting assay (dendrite length after septum lesion); assay type: in vivo, rat; details: rats, septum of hippocampus destroyed; 20 mg/per kg bodyweight per day over at least 15 days
Description: The sprouting of nerve cells is determined by the length of the dendrites. According to the present invention, the influence of the substances used according to the present invention on the sprouting is studied in an in vivo assay.
The septum of the hippocampus of 10 rats was destroyed (see Hagg et al; Exp. Neurol., 101, 303–312). 21 days after the impairment of the hippocampus was unambiguous, as confirmed by a behavioural test, the rats were divided into two groups of 5 rats each. 20 mg/per kg bodyweight per day of the substance used according to the present invention (GFPNH2) was administered to the test group of 5 rats over at least 15 days.
After administration, the animals were killed, and the cholinergic nerve ends were observed by a CAT (choline-acetyl-transferase) immunofluorescence assay under a fluorescence microscope. The length of the dendrites was measured thereby.

[5] = freshly isolated rat hepatocytes (in suspension)

Molecule: thyreoliberin [TRH, reference compound]
predicted absorption after peroral application (PAMPA classification) (classification by flux rate): weakly absorbed

predicted absorption after peroral application (PAMPA classification) (PAMPA): medium to highly absorbed
Molecule: CC[C@H](C)[C@H](NC(C)C)C(=O)N[C@H](C(=O)N1CCC[C@H]1C(N)=O)[C@@H](C)CC [N-Isopropyl-Ile-Ile-ProNH2]

Molecule: CC[C@H](C)[C@H](NC(=O)CN(CC)CC)C(=O)N1CCC[C@H]1C(N)=O [N,N-Diethyl-Gly-Ile-ProNH2]
half-life ([1]; freshly isolated rat hepatocytes): 2.8 h | predicted absorption after peroral application (PAMPA classification) (PAMPA): medium to highly absorbed

Molecule: O=c1ccc2ccccc2o1 [Coumarin]
flux rate published by Kansy et al. [2]: 66%

Molecule: CC[C@H](C)[C@H](NC(=O)[C@H]([C@@H](C)CC)N(CC)CC)C(=O)N1CCC[C@H]1C(N)=O [N,N-Diethyl-Ile-Ile-ProNH2, N,N-diethyl-isoleucyl-isoleucyl-prolineamide]
half-life [1, 5]: 3.4 h | predicted absorption after peroral application (PAMPA classification) (PAMPA): medium to highly absorbed | solubility [3]: 1000 µg/mL (≈ 2520 µM)

Molecule: C[C@]12CCC(=O)C=C1CC[C@@H]1[C@@H]2[C@@H](O)C[C@@]2(C)[C@H]1CC[C@]2(O)C(=O)CO [Hydrocortisone]
flux rate published by Kansy et al. [2]: 52%

Molecule: CCNC(=O)[C@@H]1CCCN1C(=O)[C@H](Cc1ccccc1)NC(=O)[C@H]([C@@H](C)CC)N(CC)CC [N,N-Diethyl-Ile-Phe-ProNHEt, N,N-diethyl-isoleucyl-phenylalanyl-L-proline ethylamide]
half-life [1, 5]: 4.5 h | predicted absorption after peroral application (PAMPA classification) (PAMPA): medium to highly absorbed | solubility [3]: 1000 µg/mL (≈ 2180 µM)

Molecule: NCC(=O)N[C@@H](Cc1ccccc1)C(=O)N1CCC[C@H]1C(N)=O [HCl-Gly-Phe-ProNH2, glycyl-L-phenylalanyl-L-prolineamide] (H-Gly-Phe-Pro-NH2)
increase of the dendrite length [4]: 8 to 10 μm | predicted absorption after peroral application (PAMPA classification) (PAMPA): weakly absorbed
